According to PubChem BioAssay AID1259407 (Chemical Carcinogenesis Research Information System (CCRIS), 2018):
The source made the active and inactive calls. How the calls were made is not given here.

Test system: CCRIS mutagenicity, Ames/micronucleus/aberration tests
Experiment: CCRIS mutagenicity studies
Conditions: Test System: AMES SALMONELLA TYPHIMURIUM, Method: PREINCUBATION

Measured: mutagenic call

O=C1CCC(=O)O1
inactive: Strain/Indicator: TA97, Metabolic Activation: HAMSTER, LIVER, S-9, AROCLOR 1254 (10%) inactive; negative | Strain/Indicator: TA97, Metabolic Activation: HAMSTER, LIVER, S-9, AROCLOR 1254 (30%) inactive; negative | Strain/Indicator: TA97, Metabolic Activation: HAMSTER, LIVER, S-9, AROCLOR 1254 inactive; negative | Strain/Indicator: TA97, Metabolic Activation: NONE inactive; negative | Strain/Indicator: TA97, Metabolic Activation: RAT, LIVER, S-9, AROCLOR 1254 (10%) inactive; negative | Strain/Indicator: TA97, Metabolic Activation: RAT, LIVER, S-9, AROCLOR 1254 (30%) inactive; negative | Strain/Indicator: TA97, Metabolic Activation: RAT, LIVER, S-9, AROCLOR 1254 inactive; negative | Strain/Indicator: TA98, Metabolic Activation: HAMSTER, LIVER, S-9, AROCLOR 1254 (10%) inactive; negative | Strain/Indicator: TA98, Metabolic Activation: HAMSTER, LIVER, S-9, AROCLOR 1254 (30%) inactive; negative | Strain/Indicator: TA98, Metabolic Activation: HAMSTER, LIVER, S-9, AROCLOR 1254 inactive; negative | Strain/Indicator: TA98, Metabolic Activation: NONE inactive; negative | Strain/Indicator: TA98, Metabolic Activation: RAT, LIVER, S-9, AROCLOR 1254 (10%) inactive; negative | Strain/Indicator: TA98, Metabolic Activation: RAT, LIVER, S-9, AROCLOR 1254 (30%) inactive; negative | Strain/Indicator: TA98, Metabolic Activation: RAT, LIVER, S-9, AROCLOR 1254 inactive; negative | Strain/Indicator: TA100, Metabolic Activation: HAMSTER, LIVER, S-9, AROCLOR 1254 (10%) inactive; negative | Strain/Indicator: TA100, Metabolic Activation: HAMSTER, LIVER, S-9, AROCLOR 1254 (30%) inactive; negative | Strain/Indicator: TA100, Metabolic Activation: HAMSTER, LIVER, S-9, AROCLOR 1254 inactive; negative | Strain/Indicator: TA100, Metabolic Activation: NONE inactive; negative | Strain/Indicator: TA100, Metabolic Activation: RAT, LIVER, S-9, AROCLOR 1254 (10%) inactive; negative | Strain/Indicator: TA100, Metabolic Activation: RAT, LIVER, S-9, AROCLOR 1254 (30%) inactive; negative | Strain/Indicator: TA100, Metabolic Activation: RAT, LIVER, S-9, AROCLOR 1254 inactive; negative | Strain/Indicator: TA1535, Metabolic Activation: HAMSTER, LIVER, S-9, AROCLOR 1254 (10%) inactive; negative | Strain/Indicator: TA1535, Metabolic Activation: HAMSTER, LIVER, S-9, AROCLOR 1254 (30%) inactive; negative | Strain/Indicator: TA1535, Metabolic Activation: HAMSTER, LIVER, S-9, AROCLOR 1254 inactive; negative | Strain/Indicator: TA1535, Metabolic Activation: NONE inactive; negative | Strain/Indicator: TA1535, Metabolic Activation: RAT, LIVER, S-9, AROCLOR 1254 (10%) inactive; negative | Strain/Indicator: TA1535, Metabolic Activation: RAT, LIVER, S-9, AROCLOR 1254 (30%) inactive; negative | Strain/Indicator: TA1535, Metabolic Activation: RAT, LIVER, S-9, AROCLOR 1254 inactive; negative | Strain/Indicator: TA1537, Metabolic Activation: HAMSTER, LIVER, S-9, AROCLOR 1254 (10%) inactive; negative | Strain/Indicator: TA1537, Metabolic Activation: HAMSTER, LIVER, S-9, AROCLOR 1254 inactive; negative | Strain/Indicator: TA1537, Metabolic Activation: NONE inactive; negative | Strain/Indicator: TA1537, Metabolic Activation: RAT, LIVER, S-9, AROCLOR 1254 (10%) inactive; negative | Strain/Indicator: TA1537, Metabolic Activation: RAT, LIVER, S-9, AROCLOR 1254 inactive; negative
